Reference: US20040167217A1, “Neuroprotective effects of polyphenolic compounds” (priority 2003, published 2004)

Legend:
Male Wistar rats [1] = assay: Lethality after intracerebroventricular T-BuOOH; assay type: in vivo, rat
Procedure: (§1) Male Wistar rats, weighing 140-180 g, were used for all experiments. Ten animals per experimental group were pre-administrated with curcumin, suitably suspended in distilled water, at the dose of 50 mg/kg per day, through oral intubation, for 7 days, before an intracerebroventricular injection of T-butylhydroperoxide (T-BuOOH) 2 μl of a 70% solution of phosphate buffered saline (PBS)^16. Lethality was assessed after administration of T-BuOOH at time points: 0, 2, 6, 12, and 24 h, and was expressed as the percentage of survival relative to the lethality observed in T-BuOOH plus Tween/saline vehicle (control) treated animals (FIG. 11A). After 30h the surviving animals were sacrificed and their brains quickly removed to investigate lipid peroxide formation as an index of oxidative challenge in neurons.
(§2) Male Wistar rats, weighing 140-180 g, were used for all experiments. […] Lethality was assessed after administration of T-BuOOH at time points: 0, 2, 6, 12, and 24 h, and was expressed as the percentage of survival relative to the lethality observed in T-BuOOH plus Tween/saline vehicle (control) treated animals (FIG. 12A). […]

heme oxygenase = assay: Heme oxygenase activity assay in astrocytes; assay type: cell-based
Procedure: Type 1 astrocytes (DI TNC1) were purchased from the American Type Culture Collection (Manassas, VA) and cultured in Dulbecco's modified Eagle's medium containing 4.5 g/l glucose, 2 mM glutamine, 100 units/ ml penicillin, and 0.1 mg/ml streptomycin and supplemented with 10% fetal bovine serum. Cells were grown in 75-cm^2 flasks and maintained at 37° C. in a humidified atmosphere of air and 5% CO2. Confluent cells were exposed to various concentrations of curcumin, CAPE, or Curcumin-95. After each treatment (6 or 24 h), cells were harvested for the determination of heme oxygenase activity, HO-1 protein expression, and intracellular glutathione. Astrocytes growing in 24 wells were exposed to polyphenolic compounds, and cell viability was determined at 24 h. Heme oxygenase activity was determined at the end of each treatment as described previously by Foresti, et al.^18 and Motterlini, et al.^19 Briefly, microsomes from harvested cells were added to a reaction mixture containing NADPH, glucose-6-phosphate dehydrogenase, rat liver cytosol as a source of biliverdin reductase, and the substrate hemin. The reaction mixture was incubated in the dark at 37° C. for 1 h and was terminated by the addition of 1 ml of chloroform. After vigorous vortex and centrifugation, the extracted bilirubin in the chloroform layer was measured by the difference in absorbance between 464 and 530 nm (ε=40 mM^−1cm^−1).

Male Wistar rats [2] = assay: Brain lipid peroxides (FOX2) after T-BuOOH; assay type: in vivo, rat
Procedure: as §1, with “After 30h the surviving animals were sacrificed and their brains quickly removed to investigate lipid peroxide formation as an index of oxidative challenge in neurons.” left out
Briefly, brain areas were dissected and homogenized in ice cold 0.1 M, pH 7.5 phosphate buffer (final vol 1.1 ml). […] Hydroperoxides were quantitated by the FOX2 method^17. […] After centrifugation at 12,000×g for 5 min to remove any flocculated material, absorbance of the supernatant was then read at 560 nm.
as §2

HO-1 = HO-1 protein expression, Western blot, astrocytes; assay type: cell-based
Procedure: Type 1 astrocytes (DI TNC1) were purchased from the American Type Culture Collection (Manassas, VA) and cultured in Dulbecco's modified Eagle's medium containing 4.5 g/l glucose, 2 mM glutamine, 100 units/ ml penicillin, and 0.1 mg/ml streptomycin and supplemented with 10% fetal bovine serum. Cells were grown in 75-cm^2 flasks and maintained at 37° C. in a humidified atmosphere of air and 5% CO2. Confluent cells were exposed to various concentrations of curcumin, CAPE, or Curcumin-95. After each treatment (6 or 24 h), cells were harvested for the determination of heme oxygenase activity, HO-1 protein expression, and intracellular glutathione. Astrocytes growing in 24 wells were exposed to polyphenolic compounds, and cell viability was determined at 24 h. After treatment with curcumin, or CAPE, samples of astrocytes were also analyzed for HO-1 protein expression using a Western immunoblot technique described previously^18,19. Briefly, an equal amount of proteins (30 μg) for each sample was separated by SDS-polyacrylamide gel electrophoresis and transferred overnight to nitrocellulose membranes, and the non-specific binding of antibodies was blocked with 3% non-fat dried milk in PBS. Membranes were then probed with a polyclonal rabbit anti-HO-1 antibody (Stressgen) (1:1000 dilution in Tris-buffered saline, pH 7.4) for 2 h at room temperature. After three washes with PBS, blots were visualized using an amplified alkaline phosphatase kit from Sigma (Extra-3A), and the relative density of bands was analyzed by the use of an imaging densitometer (model GS-700; Bio-Rad, Herts, UK). Blots shown are representative of three independent experiments.

[3] = tested on: Type 1 astrocytes (DI TNC1); assay: Intracellular glutathione (GSH, GSSG) in astrocytes; assay type: cell-based
Procedure: Type 1 astrocytes (DI TNC1) were purchased from the American Type Culture Collection (Manassas, VA) and cultured in Dulbecco's modified Eagle's medium containing 4.5 g/l glucose, 2 mM glutamine, 100 units/ ml penicillin, and 0.1 mg/ml streptomycin and supplemented with 10% fetal bovine serum. Cells were grown in 75-cm^2 flasks and maintained at 37° C. in a humidified atmosphere of air and 5% CO2. Confluent cells were exposed to various concentrations of curcumin, CAPE, or Curcumin-95. After each treatment (6 or 24 h), cells were harvested for the determination of heme oxygenase activity, HO-1 protein expression, and intracellular glutathione. […] GSH and GSSG levels were measured after 6- and 24- h exposure of astrocytes to curcumin and CAPE using a method previously described^19,20. Briefly, cells harvested in cold PBS were freeze-thawed three times, and an aliquot of this suspension was added to a buffer solution containing 12 mM EDTA and 10 mM 5,5′-dithiobis-(2-nitrobenzoic acid). Total glutathione was measured spectrophotometrically (optical density=412nm) using the glutathione reductase-recycling assay. To determine the amount of GSSG, an aliquot of the cell suspension was added to an equal volume of buffer containing EDTA and N-ethylmaleimide (10 mM). The sample was mixed and centrifuged, and the supernatant was passed through a C18 Sep-Pak cartridge (Waters, Milford, Mass.) to remove the excess N-ethylmaleimide. The sample was added to a cuvette containing 5,5′-dithiobis-(2-nitrobenzoic acid) and glutathione reductase, and the assay was performed as for the measurement of total glutathione. Intracellular glutathione was determined by comparison with a standard curve obtained with GSH and GSSG solutions and was expressed as nmoles/mg of protein.

[4] = high concentrations (50 and 100 μM)

SMILES: COc1cc(C=CC(=O)CC(=O)C=Cc2ccc(O)c(OC)c2)ccc1O [curcumin, 1,7-bis[4-Hydroxy-3-methoxyphenyl]-1,6-heptadiene-3,5-dione]
- animals that died after T-BuOOH (Male Wistar rats [1]; 50 mg/kg per day oral for 7 days before i.c.v. T-BuOOH, over 24 h (T-BuOOH alone 60%)): 20%
- increase in heme oxygenase activity (heme oxygenase; 6 h, 15 μM): 7.4 fold
- increase in heme oxygenase activity (heme oxygenase; 6 h, 30 μM): 9.1 fold
- heme oxygenase activity (heme oxygenase; 6 h, 30 μM (control 247±5)): 2461±194 pmol of bilirubin/mg of protein/h
- heme oxygenase activity (heme oxygenase; 6 h, 30 μM plus 1 mM NAC): 2392±22 pmol of bilirubin/mg of protein/h
- heme oxygenase activity (heme oxygenase; 6 h, 50 μM, absence of NAC): 492±30 pmol of bilirubin/mg of protein/h
- heme oxygenase activity (heme oxygenase; 6 h, 50 μM, presence of 1 mM NAC): 752±78 pmol of bilirubin/mg of protein/h
- effect of NAC on the increase in heme oxygenase activity (heme oxygenase; 6 h, 15 and 30 μM, 1 mM NAC): not significantly affected by the presence of NAC
- heme oxygenase activity (heme oxygenase; [4]): unable to stimulate an increase in heme oxygenase activity
- elevation in heme oxygenase activity (heme oxygenase; higher concentrations (50-100 μM)): 1.9 fold
- lipid peroxides in brain areas (oxidative damage) (Male Wistar rats [2]; 50 mg/kg per day oral for 7 days before T-BuOOH, cortex, striatum, hippocampus, cerebellum): prevented the oxidative damages to neuronal tissues
- HO-1 protein expression (HO-1; 50-100 μM): failed to increase HO-1 expression
- HO-1 protein expression (HO-1; 6 h, 15 and 30 μM): marked up-regulation of HO-1 protein
- HO-1 protein expression (HO-1; 24 h after treatment): over-expression of HO-1 was also found
- glutathione oxidation (GSSG) ([3]; 6 h, 50 μM): caused oxidation
- intracellular GSH ([3]; 6 h, 50 μM): without affecting the GSH content
- intracellular GSH ([3]; 6 h, 15 and 30 μM): significant increase
- intracellular GSSG ([3]; 6 h, 15 and 30 μM): significant increase
- intracellular GSH ([3]; 24 h, 15, 30, and 50 μM): concentration-dependent decrease in GSH
- intracellular GSSG ([3]; 24 h, 15, 30, and 50 μM): gradual and substantial increase in GSSG levels

SMILES: O=C(/C=C/c1ccc(O)c(O)c1)OCCc1ccccc1 [CAPE, Caffeic acid phenethyl ester]
- protection against T-BuOOH induced lethality (Male Wistar rats [1]; 20 mg/kg per day oral for 7 days before i.c.v. T-BuOOH): marked protection
- concentration of maximal enzyme activation (heme oxygenase): 30 µM
- enzyme activation and protein expression at 100 μM compared with 30 μM (heme oxygenase; 100 μM): significantly less effective
- heme oxygenase activity (heme oxygenase; [4]): unable to stimulate an increase in heme oxygenase activity
- heme oxygenase activity (heme oxygenase; low concentrations 15-50 μM): substantial increase
- lipid peroxides in brain areas (oxidative damage) (Male Wistar rats [2]; 20 mg/kg per day oral for 7 days before T-BuOOH): prevented oxidative damages to neuronal tissues
- concentration of maximal HO-1 protein expression (HO-1): 30 µM
- HO-1 protein levels (HO-1; low concentrations 15-50 μM): substantial increase
- intracellular GSH ([3]; 6 h, 50 μM): did not affect GSH
- intracellular GSH ([3]; 6 h, 15 and 30 μM): elevation of GSH
- intracellular GSH ([3]; 24 h, 50 μM): significant depletion of GSH
- intracellular GSSG ([3]; 24 h, 50 μM): concomitant elevation in GSSG
- intracellular GSH ([3]; 24 h, 15 and 30 μM): marked reduction
